Data taken from US7205011B2, “Anti-inflammatory activity of a specific turmeric extract” (Board of Regents, Acting for and on behalf of, University …, priority 2003, dated 2007).
Values after ≈ are worked out from the molar mass of the structure shown. Like-named read-outs stand apart in the source and are kept apart here. Each block holds one compound with its values, some of them ahead of it.

Legend:
[1] = tested on: LPS-induced TNF-α production; assay: Inhibition of LPS-induced TNF-α production in PMA-differentiated HL-60 cells (ELISA); type: cell-based; details: Homo sapiens, read-out: IC50 TNF-α (50% inhibition of LPS-induced mediator production)
[2] = tested on: LPS-induced PGE2 production; assay: Inhibition of LPS-induced PGE2 production in PMA-differentiated HL-60 cells (ELISA); type: cell-based; details: Homo sapiens
TNF-α = details: Chan et al. 1995; Abe et al. 1999; cited from earlier work
COX-2 mRNA = assay: COX-2 expression assay (Quantikine mRNA) in LPS-stimulated HL-60 cells; details: HL-60 cells + LPS
COX-2 expression = details: Lee et al. 2002; IC50 values not reported; cited from earlier work
[3] = Table 1, curcuminoids from fraction 5, HL-60 cells, LPS 1 μg/ml, 24 hrs
[4] = Table 1, curcuminoids from fraction 5, HL-60 cells, LPS 1 μg/ml, 24 hrs, read-out: IC50 PGE2 (50% inhibition of LPS-induced mediator production)

IC50 [1, 3]: 24.6 µg/mL (≈ 79.8 µM)
IC50 [2, 4]: 1.2 µg/mL (≈ 3.89 µM)
SMILES: O=C(/C=C/c1ccc(O)cc1)CC(=O)/C=C/c1ccc(O)cc1 (single isomer, unassigned) [Bisdemethoxycurcumin, bisdemethoxycurcumin]

IC50 [1, 3]: 28.8 µg/mL (≈ 78.2 µM)
IC50 [2, 4]: 0.45 µg/mL (≈ 1.22 µM)
SMILES: COc1cc(/C=C/C(=O)CC(=O)/C=C/c2ccc(O)c(OC)c2)ccc1O (single isomer, unassigned) [Curcumin, curcumin]
concentration producing 50% decrease in production of TNF-α (TNF-α): 2 to 10 µg/mL
inhibition (decrease) of COX-2 expression (COX-2 mRNA; 0.5 μg/mL, 24 hrs, relative to LPS alone = 100%): greater than 50%
inhibition of COX-2 expression (COX-2 mRNA; 1.0 μg/ml, 24 hrs, relative to LPS alone = 100%): greater than 50%
effect on COX-2 expression / COX-2 mRNA levels (COX-2 mRNA; concentration not given, result in words): inhibited COX-2 expression

SMILES: COc1cc(/C=C/C(O)=C/C(=O)/C=C/c2ccc(O)cc2)ccc1O (single isomer, unassigned) [Demethoxycurcumin, demethoxycurcumin]
IC50 ([1]; HL-60, 24 h): 24.7 µg/mL (≈ 73 µM)
IC50 ([2]; HL-60, 24 h, read-out: IC50 PGE2 (50% inhibition of LPS-induced mediator production)): 2.6 µg/mL (≈ 7.68 µM)

IC50 ([2]; HL-60 cells, LPS 1 μg/ml, 24 hrs, read-out: IC50 for LPS-induced PGE2 production): 0.052 µg/mL (≈ 0.145 µM)
SMILES: COc1ccc2c(c1)c(CC(=O)O)c(C)n2C(=O)c1ccc(Cl)cc1 [indomethacin]

SMILES: CC(C)=CCC[C@@H](C)c1ccc(C)c(O)c1 [xanthorrhizol]
concentrations showing inhibition of COX-2 expression (COX-2 expression): 5 to 10 µg/mL
